Values of other authors as cited in patent publication US5238927A (priority 1992, dated 1993).

Details: in vivo

SMILES: NC(=O)c1cc[n+](COC[n+]2ccccc2C=NO)cc1 [HI-6, 1-(2-hydroxyiminomethylpyridinium)-2-(4-carboxyamidopyridinium)-dimethyl ether dichloride]
- effectiveness as antidote in the treatment of organophosphorus toxin nerve poisoning: most effective known antidote
